{"source": "patent US20240285621A1", "about": "“PYRAZOLYL-PYRIMIDINE DERIVATIVES AS KINASE INHIBITORS” (NERVIANO MEDICAL SCIENCES S.R.L., priority 2020, published 2024)", "note": "Structures can show the parent of a compound that is named as a salt.", "data": [{"biological_target": "T1, SYK (Homo sapiens, UniProt P43405)", "T1 construct": "Recombinant proteins SYK FL was produced at NMS via baculo virus infection in insect cells; His; GST; made in house; host or cells: insect cells (baculovirus)", "test": "Biochemical kinase inhibition assay on SYK, KinaseGlo assay format", "conditions": "Table A; KinaseGlo format, pre-activated SYK 2.5 nM, ATP 2.5 μM, substrate BioDBn*327 125 uM, 60 minutes at rt; read-out: IC50 (μM) Kglo", "units": {"IC50": "µM"}, "values": [{"smiles": "Cc1cc(C)cc(Nc2nccc(-c3cc(C(=O)NCc4cncn4C)n(C)n3)n2)c1", "note": "[Example 25, 3-{2-[(3,5-dimethylphenyl)amino]pyrimidin-4-yl}-1-methyl-N-[(1-methyl-1H-imidazol-5-yl)methyl]-1H-pyrazole-5-carboxamide]", "IC50": 0.249}, {"smiles": "Cc1cc(C)cc(Nc2nccc(-c3cc(C(=O)N[C@H](CN4CCC4)C(C)C)[nH]n3)n2)c1", "note": "[Example 105, N-[(2S)-1-(azetidin-1-yl)-3-methylbutan-2-yl]-3-{2-[(3,5-dimethylphenyl)amino]pyrimidin-4-yl}-1H-pyrazole-5-carboxamide]", "IC50": 0.012}, {"smiles": "C[C@@H](CN1CCC1)NC(=O)c1cc(-c2ccnc(Nc3ccc4c(c3)c(Cl)cn4C)n2)nn1C", "note": "[Example 59, N-[(2S)-1-(azetidin-1-yl)propan-2-yl]-3-{2-[(3-chloro-1-methyl-1H-indol-5-yl)amino]pyrimidin-4-yl}-1-methyl-1H-pyrazole-5-carboxamide]", "IC50": "< 0.004"}, {"smiles": "CN1CCN(c2ccc(Nc3nccc(-c4cc(C(=O)N[C@H]5CCCC[C@H]5O)n(C)n4)n3)cc2Cl)CC1", "note": "[Example 114, 3-(2-{[3-chloro-4-(4-methylpiperazin-1-yl)phenyl]amino}pyrimidin-4-yl)-N-[(1S,2R)-2-hydroxycyclohexyl]-1-methyl-1H-pyrazole-5-carboxamide]", "IC50": 0.191}, {"smiles": "Cc1cc(C)cc(Nc2nccc(-c3cc(C(=O)Nc4cc[nH]n4)n(C)n3)n2)c1", "note": "[Example 20, 3-{2-[(3,5-dimethylphenyl)amino]pyrimidin-4-yl}-1-methyl-N-(1H-pyrazol-3-yl)-1H-pyrazole-5-carboxamide]", "IC50": 0.109}, {"smiles": "COc1cc(Nc2nccc(-c3cc(C(=O)N[C@H]4CCCC[C@H]4N)n(C)n3)n2)cc(C(F)(F)F)c1", "note": "[Example 37, N-[(1S,2R)-2-aminocyclohexyl]-3-(2-{[3-methoxy-5-(trifluoromethyl)phenyl]amino}pyrimidin-4-yl)-1-methyl-1H-pyrazole-5-carboxamide hydrochloride]", "IC50": 0.009}, {"smiles": "C[C@@H](CO)NC(=O)c1cc(-c2ccnc(Nc3ccc(N4CCN(C)CC4)c(Cl)c3)n2)nn1C", "note": "[Example 110, 3-(2-{[3-chloro-4-(4-methylpiperazin-1-yl)phenyl]amino}pyrimidin-4-yl)-N-[(2S)-1-hydroxypropan-2-yl]-1-methyl-1H-pyrazole-5-carboxamide]", "IC50": 0.452}, {"smiles": "CCn1nc(-c2ccnc(Nc3cc(C)cc(C)c3)n2)cc1C(=O)N[C@H]1CCCC[C@H]1N", "note": "[Example 121, N-[(1S,2R)-2-aminocyclohexyl]-3-{2-[(3,5-dimethylphenyl)amino]pyrimidin-4-yl}-1-ethyl-1H-pyrazole-5-carboxamide hydrochloride]", "IC50": 0.012}, {"smiles": "Cc1cc(C)cc(Nc2nccc(-c3cc(C(=O)N4CCC[C@H]4CO)n(C)n3)n2)c1", "note": "[Example 89, (3-{2-[(3,5-dimethylphenyl)amino]pyrimidin-4-yl}-1-methyl-1H-pyrazol-5-yl)[(2S)-2-(hydroxymethyl)pyrrolidin-1-yl]methanone]", "IC50": 0.219}, {"smiles": "COc1cc(Nc2nccc(-c3cc(C(=O)N[C@H]4CCCC[C@H]4N)n(C)n3)n2)cc(OC)c1", "note": "[Example 100, N-[(1S,2R)-2-aminocyclohexyl]-3-{2-[(3,5-dimethoxyphenyl)amino]pyrimidin-4-yl}-1-methyl-1H-pyrazole-5-carboxamide hydrochloride]", "IC50": 0.011}, {"smiles": "Cc1cc(C)cc(Nc2nccc(-c3cc(C(=O)NC(C)C)n(C)n3)n2)c1", "note": "[Example 4, 3-{2-[(3,5-dimethylphenyl)amino]pyrimidin-4-yl}-1-methyl-N-(propan-2-yl)-1H-pyrazole-5-carboxamide]", "IC50": 0.111}, {"smiles": "CCn1nc(-c2ccnc(Nc3cc(C)cc(C)c3)n2)cc1C(=O)N[C@@H]1CCCNC1", "note": "[Example 122, 3-{2-[(3,5-dimethylphenyl)amino]pyrimidin-4-yl}-1-ethyl-N-[(3R)-piperidin-3-yl]-1H-pyrazole-5-carboxamide hydrochloride]", "IC50": 0.06}, {"smiles": "Cc1c(C)n(C)c2ccc(Nc3nccc(-c4cc(C(=O)N[C@@H](C)CO)n(C)n4)n3)cc12", "note": "[Example 93, N-[(2S)-1-hydroxypropan-2-yl]-1-methyl-3-{2-[(1,2,3-trimethyl-1H-indol-5-yl)amino]pyrimidin-4-yl}-1H-pyrazole-5-carboxamide]", "IC50": 0.137}, {"smiles": "Cc1cc(C)cc(Nc2nccc(-c3cc(C(=O)N4CC[C@@H](O)C4)n(C)n3)n2)c1", "note": "[Example 85, (3-{2-[(3,5-dimethylphenyl)amino]pyrimidin-4-yl}-1-methyl-1H-pyrazol-5-yl)[(3R)-3-hydroxypyrrolidin-1-yl]methanone]", "IC50": 0.209}, {"smiles": "Cc1cc(C)cc(Nc2nccc(-c3cc(C(=O)N4CCN(C)CC4)n(C)n3)n2)c1", "note": "[Example 21, (3-{2-[(3,5-dimethylphenyl)amino]pyrimidin-4-yl}-1-methyl-1H-pyrazol-5-yl)(4-methylpiperazin-1-yl)methanone]", "IC50": 0.238}, {"smiles": "Cc1cc(C)cc(Nc2nccc(-c3cc(C(=O)N4CCNCC4)n(C)n3)n2)c1", "note": "[Example 36, (3-{2-[(3,5-dimethylphenyl)amino]pyrimidin-4-yl}-1-methyl-1H-pyrazol-5-yl)(piperazin-1-yl)methanone hydrochloride]", "IC50": 0.169}, {"smiles": "CN(C)CCNC(=O)c1cc(-c2ccnc(Nc3cc(C(F)(F)F)cc(C(F)(F)F)c3)n2)nn1C", "note": "[Example 18, 3-(2-{[3,5-bis(trifluoromethyl)phenyl]amino}pyrimidin-4-yl)-N-[2-(dimethylamino)ethyl]-1-methyl-1H-pyrazole-5-carboxamide hydrochloride]", "IC50": 0.491}, {"smiles": "C[C@@H](CO)NC(=O)c1cc(-c2ccnc(Nc3cc(C(F)(F)F)cc(C(F)(F)F)c3)n2)nn1C", "note": "[Example 19, 3-(2-{[3,5-bis(trifluoromethyl)phenyl]amino}pyrimidin-4-yl)-N-[(2S)-1-hydroxypropan-2-yl]-1-methyl-1H-pyrazole-5-carboxamide]", "IC50": 0.104}, {"smiles": "CCn1nc(-c2ccnc(Nc3cc(C)cc(C)c3)n2)cc1C(=O)N[C@H]1CCCC[C@H]1O", "note": "[Example 120, 3-{2-[(3,5-dimethylphenyl)amino]pyrimidin-4-yl}-1-ethyl-N-[(1S,2R)-2-hydroxycyclohexyl]-1H-pyrazole-5-carboxamide]", "IC50": 0.027}, {"smiles": "Cc1cccc(Nc2nccc(-c3cc(C(=O)N[C@H]4CCCC[C@@H]4N)n(C)n3)n2)c1", "note": "[Example 53, N-[(1S,2S)-2-aminocyclohexyl]-1-methyl-3-{2-[(3-methylphenyl)amino]pyrimidin-4-yl}-1H-pyrazole-5-carboxamide]", "IC50": 0.015}, {"smiles": "Cc1cc(C)cc(Nc2nccc(-c3cc(C(=O)N[C@@H](C)C(F)(F)F)n(C)n3)n2)c1", "note": "[Example 42, 3-{2-[(3,5-dimethylphenyl)amino]pyrimidin-4-yl}-1-methyl-N-[(2S)-1,1,1-trifluoropropan-2-yl]-1H-pyrazole-5-carboxamide]", "IC50": 0.474}, {"smiles": "CC(C)[C@@H](CN1CCCC1)NC(=O)c1cc(-c2ccnc(Nc3cc(Cl)cc(Cl)c3)n2)nn1C", "note": "[Example 117, 3-{2-[(3,5-dichlorophenyl)amino]pyrimidin-4-yl}-1-methyl-N-[(2S)-3-methyl-1-(pyrrolidin-1-yl)butan-2-yl]-1H-pyrazole-5-carboxamide]", "IC50": 0.007}, {"smiles": "COc1cccc(Nc2nccc(-c3cc(C(=O)N[C@@H](C)CN4CCCC4)n(C)n3)n2)c1", "note": "[Example 70, 3-{2-[(3-methoxyphenyl)amino]pyrimidin-4-yl}-1-methyl-N-[(2S)-1-(pyrrolidin-1-yl)propan-2-yl]-1H-pyrazole-5-carboxamide]", "IC50": 0.032}, {"smiles": "Cc1cc(C)cc(Nc2nccc(-c3cc(C(=O)N4CC[C@H](N(C)C)C4)n(C)n3)n2)c1", "note": "[Example 86, [(3S)-3-(dimethylamino)pyrrolidin-1-yl](3-{2-[(3,5-dimethylphenyl)amino]pyrimidin-4-yl}-1-methyl-1H-pyrazol-5-yl)methanone]", "IC50": 0.471}, {"smiles": "Cc1cc(C)cc(Nc2nccc(-c3cc(C(=O)NCCF)n(C)n3)n2)c1", "note": "[Example 17, 3-{2-[(3,5-dimethylphenyl)amino]pyrimidin-4-yl}-N-(2-fluoroethyl)-1-methyl-1H-pyrazole-5-carboxamide]", "IC50": 0.06}, {"smiles": "Cc1cc(C)cc(Nc2nccc(-c3cc(C(=O)NC4CNC4)n(C)n3)n2)c1", "note": "[Example 8, N-(azetidin-3-yl)-3-{2-[(3,5-dimethylphenyl)amino]pyrimidin-4-yl}-1-methyl-1H-pyrazole-5-carboxamide trifluoroacetate]", "IC50": 0.282}, {"smiles": "CC[C@H](NC(=O)c1cc(-c2ccnc(Nc3cc(C)cc(C)c3)n2)nn1C)C(F)(F)F", "note": "[Example 55, 3-{2-[(3,5-dimethylphenyl)amino]pyrimidin-4-yl}-1-methyl-N-[(2S)-1,1,1-trifluorobutan-2-yl]-1H-pyrazole-5-carboxamide]", "IC50": 0.324}, {"smiles": "Cn1nc(-c2ccnc(Nc3cc(F)cc(F)c3)n2)cc1C(=O)N[C@H]1CCCC[C@@H]1N", "note": "[Example 113, N-[(1S,2S)-2-aminocyclohexyl]-3-{2-[(3,5-difluorophenyl)amino]pyrimidin-4-yl}-1-methyl-1H-pyrazole-5-carboxamide]", "IC50": 0.061}, {"smiles": "COc1cc(Nc2nccc(-c3cc(C(=O)N[C@@H](C)CN4CCCC4)n(C)n3)n2)cc(OC)c1OC", "note": "[Example 58, 1-methyl-N-[(2S)-1-(pyrrolidin-1-yl)propan-2-yl]-3-{2-[(3,4,5-trimethoxyphenyl)amino]pyrimidin-4-yl}-1H-pyrazole-5-carboxamide]", "IC50": 0.059}, {"smiles": "Cc1cc(C)cc(Nc2nccc(-c3cc(C(=O)N[C@H](CN4CCCC4)c4ccccc4)n(C)n3)n2)c1", "note": "[Example 107, 3-{2-[(3,5-dimethylphenyl)amino]pyrimidin-4-yl}-1-methyl-N-[(1S)-1-phenyl-2-(pyrrolidin-1-yl)ethyl]-1H-pyrazole-5-carboxamide]", "IC50": 0.026}]}, {"biological_target": "T1, SYK", "test": "Biochemical kinase inhibition assay on SYK, KinaseGlo assay format", "conditions": "Table B; reference compounds of WO2012/139930, KinaseGlo format on Syk; read-out: IC50 (μM) Kglo", "units": {"IC50": "µM"}, "values": [{"smiles": "CCc1cccc(CC)c1NC(=O)c1cc(-c2ccnc(Nc3ccccc3OC)n2)n(C)n1", "note": "[compound 7, reference compound]", "IC50": "> 10"}]}]}
